{
  "source": "patent US10918107B2",
  "about": "“Encapsulated lactams” (Conopco, Inc., priority 2015, dated 2021)",
  "assay": "Solubility of the lactam in 2-heptanone carrier oil",
  "type": "physicochemical",
  "conditions": "'also soluble at 1%' (0.5% solution used in the example)",
  "description": "2-heptanone was used as the carrier (oil phase) for the lactam at a ratio of 1:199 (Lactam:Heptanone) which equates to 0.5% lactam solution. The inventor(s) have determined that the lactam is also soluble at 1%. The isocyanate was polymethylene polyphenyl isocyanate (Mn340) and the crosslinker was hexamethylenediamine (HMDA). Emulsification was carried out at a shear of 15K. The stabiliser is a commercial naphthalene sulphonate called Morwet-D425®. Morwet forms dark brown solutions so the encapsulated slurry is often buff/brown coloured.",
  "data": [
    {"smiles": "C=C1NC(=O)C=C1c1ccc(Cl)cc1", "note": "[Ref. 488, 4-(4-chlorophenyl)-5-methylene-pyrrol-2-one]", "values": [
      {"measurement": "solubility of lactam in 2-heptanone (carrier oil)", "value": "≥ 1", "unit": "%"}
    ]}
  ]
}
